Test results from ChEMBL document CHEMBL1201862, “PubChem BioAssay data set” (2004).
Activity calls are given as the source filed them.

How the values were obtained:
[1] = NIH3T3 cell viability loss – ATP luminescence, mouse fibroblasts, counter-screen, dose response (AID 2010); assay type: functional, cell-based;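 note: cells exposed to compound for about 90 hours before reading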
[2] = Trypanosoma cruzi growth suppression in host cells – NIH3T3 host cells, beta-gal luminescence, confirmation (AID 2044); assay type: functional, cell-based;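 note: intracellular parasites grown in NIH/3T3 mouse fibroblasts as host cells; luminescent beta-galactosidase reporter signal from transgenic T. cruzi replicating inside host cells; inhibitors lower the luminescence signal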
CAAX prenyl protease 2 = target: T1, CAAX prenyl protease 2 (Saccharomyces cerevisiae S288c, UniProt Q03530); experiment: inhibition of Rce1p peptide cleavage – biochemical, plate reader, dry powder retest, dose response (AID 588851)
T1 sequence (Q03530 whole entry): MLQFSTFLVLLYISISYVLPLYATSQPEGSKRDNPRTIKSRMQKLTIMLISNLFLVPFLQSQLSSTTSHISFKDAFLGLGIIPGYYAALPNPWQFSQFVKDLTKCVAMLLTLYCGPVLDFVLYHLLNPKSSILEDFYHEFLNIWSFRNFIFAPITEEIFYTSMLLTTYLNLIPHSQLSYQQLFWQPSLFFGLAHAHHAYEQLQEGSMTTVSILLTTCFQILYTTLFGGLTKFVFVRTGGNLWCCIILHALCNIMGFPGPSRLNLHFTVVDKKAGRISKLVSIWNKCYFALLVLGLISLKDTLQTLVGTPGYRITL

[3] = target: T2, Heat shock factor protein 1 (Mus musculus, UniProt P38532); experiment: enhancement of HSF1-driven luciferase signal – cell-based, NIH3T3, luminescence, dose retest, confirmation (AID 435004); assay type: functional;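 note: stress induced by proteasome inhibitor MG132 added 30 min after compound; luciferase reporter driven by HSF1 response element in NIH3T3 cells; actives raise luminescence as potentiators of the MG132 stress response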
T2 sequence (P38532 whole entry): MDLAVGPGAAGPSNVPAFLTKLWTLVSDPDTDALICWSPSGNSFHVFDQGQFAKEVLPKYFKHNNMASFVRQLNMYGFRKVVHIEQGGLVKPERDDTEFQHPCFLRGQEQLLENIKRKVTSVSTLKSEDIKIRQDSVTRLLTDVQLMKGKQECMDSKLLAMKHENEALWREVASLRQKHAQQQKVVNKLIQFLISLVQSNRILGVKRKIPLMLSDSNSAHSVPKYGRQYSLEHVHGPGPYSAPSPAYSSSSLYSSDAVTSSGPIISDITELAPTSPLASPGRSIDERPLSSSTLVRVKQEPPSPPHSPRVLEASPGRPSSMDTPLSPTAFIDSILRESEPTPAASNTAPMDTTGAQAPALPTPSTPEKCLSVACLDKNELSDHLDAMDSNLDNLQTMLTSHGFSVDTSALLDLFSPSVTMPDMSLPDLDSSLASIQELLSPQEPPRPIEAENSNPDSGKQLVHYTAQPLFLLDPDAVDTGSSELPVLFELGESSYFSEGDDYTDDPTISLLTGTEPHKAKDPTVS

Insulin-degrading enzyme [4] = target: T3, Insulin-degrading enzyme (Homo sapiens, UniProt P14735); experiment: recombinant IDE activation, cell-free – biochemical, fluorescence polarization, counter-screen for IDE activator project, dose response (AID 588681)
T3 sequence (P14735 whole entry): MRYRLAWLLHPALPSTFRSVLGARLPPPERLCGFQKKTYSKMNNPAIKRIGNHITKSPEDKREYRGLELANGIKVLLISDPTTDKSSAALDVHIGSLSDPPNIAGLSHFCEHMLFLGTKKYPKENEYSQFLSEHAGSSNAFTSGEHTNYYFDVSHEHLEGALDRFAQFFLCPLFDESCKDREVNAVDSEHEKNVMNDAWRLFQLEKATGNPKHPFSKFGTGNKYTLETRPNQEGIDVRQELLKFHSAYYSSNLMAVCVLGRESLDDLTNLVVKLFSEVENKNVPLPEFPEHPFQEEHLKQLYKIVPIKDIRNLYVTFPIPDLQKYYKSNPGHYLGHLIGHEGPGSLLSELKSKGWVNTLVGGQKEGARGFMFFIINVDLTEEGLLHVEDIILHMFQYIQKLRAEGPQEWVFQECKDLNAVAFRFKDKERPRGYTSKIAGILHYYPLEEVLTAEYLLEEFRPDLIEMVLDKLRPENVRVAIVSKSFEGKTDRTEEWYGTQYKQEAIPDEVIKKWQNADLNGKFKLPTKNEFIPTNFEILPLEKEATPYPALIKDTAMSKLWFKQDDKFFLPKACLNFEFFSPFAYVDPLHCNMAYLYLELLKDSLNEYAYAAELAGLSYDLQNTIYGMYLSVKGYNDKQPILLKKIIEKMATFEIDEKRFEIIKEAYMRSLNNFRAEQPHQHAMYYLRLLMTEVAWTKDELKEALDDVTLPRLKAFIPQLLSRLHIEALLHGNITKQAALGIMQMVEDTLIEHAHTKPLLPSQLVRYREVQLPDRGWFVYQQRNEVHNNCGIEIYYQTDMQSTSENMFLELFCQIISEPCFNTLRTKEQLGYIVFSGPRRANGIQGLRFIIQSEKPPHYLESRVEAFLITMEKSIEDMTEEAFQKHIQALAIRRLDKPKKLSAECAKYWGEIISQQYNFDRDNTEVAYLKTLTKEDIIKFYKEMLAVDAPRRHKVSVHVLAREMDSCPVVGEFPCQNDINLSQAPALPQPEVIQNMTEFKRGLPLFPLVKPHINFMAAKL

Insulin-degrading enzyme [5] = target: T3, Insulin-degrading enzyme; experiment: cellular IDE activation of Abeta substrate cleavage – fluorescence polarization, HEK cells, dose response (AID 588439); assay type: functional, cell-based
HEK293 [6] = experiment: optical interference in Abeta FP readout, dose response, artefact control for IDE activator project, biochemical, fluorescence polarization (AID 588442); assay type: functional, cell-based; conditions: Homo sapiens
[7] = target: T4, Calpain-2 catalytic subunit (Sus scrofa, UniProt P43367); experiment: m-calpain protease blockers, concentration series – biochemical, fluorogenic peptide substrate, dose response (AID 1420); assay type: functional
T4 sequence (P43367 whole entry): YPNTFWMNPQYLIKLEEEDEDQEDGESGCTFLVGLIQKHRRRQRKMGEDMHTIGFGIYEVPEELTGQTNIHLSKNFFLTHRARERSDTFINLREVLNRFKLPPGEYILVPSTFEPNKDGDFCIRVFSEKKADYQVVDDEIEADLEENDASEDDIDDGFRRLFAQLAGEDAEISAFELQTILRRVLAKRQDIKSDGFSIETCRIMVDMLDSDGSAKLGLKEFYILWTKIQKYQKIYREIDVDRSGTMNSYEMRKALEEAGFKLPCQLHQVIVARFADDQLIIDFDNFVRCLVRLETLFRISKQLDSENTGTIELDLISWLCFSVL

HEK293 [8] = experiment: membrane integrity loss in HEK cells – cell-based, fluorescence, cytotoxicity control for IDE activator project, dose response (AID 588440); assay type: functional; conditions: Homo sapiens;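 note: cytotoxicity by LDH release measuring loss of membrane integrity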
[9] = target: T5, Orexin/Hypocretin receptor type 1 (Homo sapiens, UniProt O43613); experiment: Homogeneous Time Resolved Fluorescence (HTRF)-based cell-based high throughput dose response assay for antagonists of the orexin 1 receptor (OX1R; HCRTR1). [Related pubchem assays (depositor defined):AID434989, AID435008, AID463079, AID485270, AID492963, AID492964, AID492965, AID493232, AID504717, AID504718]; assay type: functional
T5 sequence (O43613 whole entry): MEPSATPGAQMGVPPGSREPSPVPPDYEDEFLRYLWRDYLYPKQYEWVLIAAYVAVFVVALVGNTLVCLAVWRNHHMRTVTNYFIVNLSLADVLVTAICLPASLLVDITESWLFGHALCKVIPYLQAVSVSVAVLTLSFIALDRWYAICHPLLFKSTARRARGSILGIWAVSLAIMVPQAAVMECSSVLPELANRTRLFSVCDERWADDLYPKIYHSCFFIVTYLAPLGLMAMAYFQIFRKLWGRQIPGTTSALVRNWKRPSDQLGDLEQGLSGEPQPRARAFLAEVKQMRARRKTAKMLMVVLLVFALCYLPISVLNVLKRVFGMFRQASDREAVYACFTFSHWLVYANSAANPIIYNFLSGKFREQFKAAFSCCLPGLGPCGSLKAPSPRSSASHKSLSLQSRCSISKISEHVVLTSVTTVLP

Orexin receptor type 2 [10] = target: T6, Orexin receptor type 2 (Homo sapiens, UniProt O43614); experiment: Counterscreen assay for antagonists of the orexin 1 receptor (OX1R; HCRTR1): Homogeneous Time Resolved Fluorescence (HTRF)-based cell-based dose response assay for antagonists of the orexin 2 receptor (OX2R; HCRTR2), run by assay provider.; assay type: functional
T6 sequence (O43614 whole entry): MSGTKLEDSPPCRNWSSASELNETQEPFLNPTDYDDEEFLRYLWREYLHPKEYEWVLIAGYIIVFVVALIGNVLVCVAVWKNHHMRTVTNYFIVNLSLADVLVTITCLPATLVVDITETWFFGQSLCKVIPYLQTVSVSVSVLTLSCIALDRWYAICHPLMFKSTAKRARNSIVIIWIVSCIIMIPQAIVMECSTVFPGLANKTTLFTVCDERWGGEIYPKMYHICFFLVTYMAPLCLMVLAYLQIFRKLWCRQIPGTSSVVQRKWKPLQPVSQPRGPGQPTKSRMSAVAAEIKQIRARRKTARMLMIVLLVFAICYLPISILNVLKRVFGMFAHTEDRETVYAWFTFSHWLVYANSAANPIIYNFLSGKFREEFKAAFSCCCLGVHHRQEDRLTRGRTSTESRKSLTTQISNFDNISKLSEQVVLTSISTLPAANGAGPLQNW

[11] = Counterscreen for antagonists of the orexin 1 receptor (OX1R; HCRTR1): Fluorescence-based cell-based high throughput dose response assay to identify antagonists of the parental CHO cell line. [Related pubchem assays (depositor defined):AID434989, AID435008, AID463079, AID485270, AID492963, AID492964, AID492965, AID493232, AID504699, AID504701]; assay type: functional
Orexin receptor type 2 [12] = target: T6, Orexin receptor type 2; experiment: Counterscreen assay for antagonists of the orexin 1 receptor (OX1R; HCRTR1): Fluorescence-based cell-based dose response assay for antagonists of the orexin 2 receptor (OX2R; HCRTR2), run by assay provider.; assay type: functional
CHO-K1 = experiment: Counterscreen for antagonists of the orexin 1 receptor (OX1R; HCRTR1): Homogeneous time resolved fluorescence (HTRF)-based cell-based dose response assay to identify antagonists of the parental CHO-K1 cell line. [Related pubchem assays (depositor defined):AID434989, AID435008, AID463079, AID485270, AID492963, AID492964, AID492965, AID493232, AID504699, AID504701]; assay type: functional; conditions: Cricetulus griseus
[13] = target: T5, Orexin/Hypocretin receptor type 1; experiment: Fluorescence-based cell-based high throughput dose response assay for antagonists of the orexin 1 receptor (OX1R; HCRTR1). [Related pubchem assays (depositor defined):AID434989, AID435008, AID463079, AID485270, AID492963, AID492964, AID492965, AID493232, AID504717, AID504718]; assay type: functional
[14] = target: T7, Sentrin-specific protease 7 (Homo sapiens, UniProt Q9BQF6); experiment: inhibition of human SENP7 cleavage activity – biochemical, luminescence, SAR follow-up (AID 504497); assay type: functional
T7 sequence (Q9BQF6 whole entry): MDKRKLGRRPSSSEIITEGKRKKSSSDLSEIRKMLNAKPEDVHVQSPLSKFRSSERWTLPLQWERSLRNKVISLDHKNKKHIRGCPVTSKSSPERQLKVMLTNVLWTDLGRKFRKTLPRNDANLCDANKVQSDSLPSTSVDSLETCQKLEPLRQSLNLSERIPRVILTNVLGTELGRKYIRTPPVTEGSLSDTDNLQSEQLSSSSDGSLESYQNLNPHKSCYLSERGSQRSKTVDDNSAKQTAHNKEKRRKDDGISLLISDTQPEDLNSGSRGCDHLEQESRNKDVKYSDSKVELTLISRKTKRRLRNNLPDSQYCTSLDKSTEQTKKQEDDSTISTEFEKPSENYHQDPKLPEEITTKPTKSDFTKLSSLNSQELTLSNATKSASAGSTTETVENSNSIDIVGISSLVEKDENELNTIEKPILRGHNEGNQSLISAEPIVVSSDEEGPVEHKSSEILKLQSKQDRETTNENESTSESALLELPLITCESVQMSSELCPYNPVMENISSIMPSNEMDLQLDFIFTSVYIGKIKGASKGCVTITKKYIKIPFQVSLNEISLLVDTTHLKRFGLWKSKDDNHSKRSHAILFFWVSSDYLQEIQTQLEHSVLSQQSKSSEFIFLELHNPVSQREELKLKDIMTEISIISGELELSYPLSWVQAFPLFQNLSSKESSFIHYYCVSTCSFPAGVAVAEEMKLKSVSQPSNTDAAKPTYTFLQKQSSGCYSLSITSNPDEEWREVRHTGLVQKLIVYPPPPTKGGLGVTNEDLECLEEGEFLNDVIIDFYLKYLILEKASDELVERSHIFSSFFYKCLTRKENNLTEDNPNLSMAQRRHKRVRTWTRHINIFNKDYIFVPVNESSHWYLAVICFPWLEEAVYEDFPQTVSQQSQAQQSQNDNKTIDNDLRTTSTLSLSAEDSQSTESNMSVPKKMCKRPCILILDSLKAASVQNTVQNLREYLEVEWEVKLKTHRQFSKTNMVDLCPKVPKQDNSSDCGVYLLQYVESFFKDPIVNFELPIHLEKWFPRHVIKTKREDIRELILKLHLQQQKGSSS

[15] = target: T8, Sentrin-specific protease 6 (Homo sapiens, UniProt Q9GZR1); experiment: SAR Analysis of small molecule inhibitors of Sentrin-specific protease 6 (SENP6) using a Luminescent assay. [Related pubchem assays (depositor defined):AID2582, AID2599]; assay type: functional
T8 sequence (Q9GZR1 whole entry): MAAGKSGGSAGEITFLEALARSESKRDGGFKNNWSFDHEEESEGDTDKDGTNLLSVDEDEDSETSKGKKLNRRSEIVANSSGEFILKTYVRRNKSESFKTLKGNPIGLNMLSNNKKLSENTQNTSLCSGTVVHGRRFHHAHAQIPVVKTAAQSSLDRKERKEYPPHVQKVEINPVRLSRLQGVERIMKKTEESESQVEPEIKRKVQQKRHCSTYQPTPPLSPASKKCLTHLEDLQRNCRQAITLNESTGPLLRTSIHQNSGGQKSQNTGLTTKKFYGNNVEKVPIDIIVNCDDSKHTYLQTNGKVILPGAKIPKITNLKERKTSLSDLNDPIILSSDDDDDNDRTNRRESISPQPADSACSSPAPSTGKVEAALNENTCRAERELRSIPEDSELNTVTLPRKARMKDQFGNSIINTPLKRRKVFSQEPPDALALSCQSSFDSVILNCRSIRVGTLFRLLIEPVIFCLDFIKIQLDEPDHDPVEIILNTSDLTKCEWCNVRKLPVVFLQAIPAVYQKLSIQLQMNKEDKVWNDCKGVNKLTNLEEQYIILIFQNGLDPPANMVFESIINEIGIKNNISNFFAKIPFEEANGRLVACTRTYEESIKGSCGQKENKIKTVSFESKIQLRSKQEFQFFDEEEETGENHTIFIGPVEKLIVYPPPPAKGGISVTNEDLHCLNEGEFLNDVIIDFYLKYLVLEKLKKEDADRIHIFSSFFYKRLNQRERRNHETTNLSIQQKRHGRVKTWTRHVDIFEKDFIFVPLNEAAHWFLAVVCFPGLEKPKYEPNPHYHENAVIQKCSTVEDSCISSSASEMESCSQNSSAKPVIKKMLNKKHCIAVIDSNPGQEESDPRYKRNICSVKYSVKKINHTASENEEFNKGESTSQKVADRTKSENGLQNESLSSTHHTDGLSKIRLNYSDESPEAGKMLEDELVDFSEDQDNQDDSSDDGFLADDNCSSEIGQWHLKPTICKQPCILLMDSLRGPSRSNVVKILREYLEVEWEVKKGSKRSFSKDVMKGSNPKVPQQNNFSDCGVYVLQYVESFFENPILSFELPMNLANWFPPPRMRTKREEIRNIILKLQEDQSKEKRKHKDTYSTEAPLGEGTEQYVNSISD

[16] = target: T9, Sentrin-specific protease 8 (Homo sapiens, UniProt Q96LD8); experiment: inhibition of human SENP8 cleavage activity – biochemical, luminescence, SAR follow-up (AID 504501); assay type: functional
T9 sequence (Q96LD8 whole entry): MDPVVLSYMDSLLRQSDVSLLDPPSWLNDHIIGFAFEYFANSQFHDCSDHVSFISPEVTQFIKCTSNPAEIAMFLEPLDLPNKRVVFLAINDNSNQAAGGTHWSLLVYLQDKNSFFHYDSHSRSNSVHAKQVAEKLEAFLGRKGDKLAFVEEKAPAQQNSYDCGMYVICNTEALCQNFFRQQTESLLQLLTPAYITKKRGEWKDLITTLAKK

Caspase-3 = target: T10, Caspase-3 (Homo sapiens, UniProt P42574); experiment: SAR Analysis of small molecule inhibitors of Sentrin-specific proteases (SENPs) using a Caspase-3 Selectivity assay. [Related pubchem assays (depositor defined):AID2540, AID2599, AID434973, AID489001]; assay type: functional
T10 sequence (P42574 whole entry): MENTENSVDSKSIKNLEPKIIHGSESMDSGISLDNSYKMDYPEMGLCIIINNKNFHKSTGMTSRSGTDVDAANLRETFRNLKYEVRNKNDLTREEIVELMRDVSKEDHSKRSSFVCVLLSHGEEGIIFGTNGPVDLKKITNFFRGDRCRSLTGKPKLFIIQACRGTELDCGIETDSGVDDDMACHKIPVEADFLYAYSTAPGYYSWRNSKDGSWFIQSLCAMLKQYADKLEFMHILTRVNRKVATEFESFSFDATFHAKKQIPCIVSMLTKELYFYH

## COc1ccc(-n2c(SCc3ccc([N+](=O)[O-])cc3)nnc2-c2ccc(C)cc2)cc1
[1]
  EC50: > 60 µM (inconclusive)
[2]
  EC50: 1.35 µM (active)
CAAX prenyl protease 2
  AC50: 5.39 µM (active)
[3]
  EC50: > 260 µM (inactive)

## COc1ccc(OCCNc2cc(N3CCOCC3)ccc2[N+](=O)[O-])cc1
Insulin-degrading enzyme [4]
  EC50: > 54.7 µM (inactive)
Insulin-degrading enzyme [5]
  EC50: > 54.7 µM (inactive)
HEK293 [6]
  EC50: > 56 µM (inactive)
[7]
  IC50: 13.8 µM (not active)
HEK293 [8]
  IC50: > 89.3 µM (inactive)

## COc1cccc(/C=C2/Oc3ccccc3N(CC(=O)NCC3CCCO3)C2=O)c1 (centres undefined)
[9]
  IC50: 254 nM (active)
Orexin receptor type 2 [10]
  IC50: 960 nM (active)
[11]
  IC50: > 49.7 µM (inactive)
Orexin receptor type 2 [12]
  IC50: 3.82 µM (active)
CHO-K1
  IC50: > 66.2 µM (inactive)
[13]
  IC50: 426 nM (active)

## O=C(Nc1ccncc1)c1ccc2c(c1)OCO2
[14]
  IC50: 33.8 µM (active)
[15]
  IC50: > 99 µM (inactive)
[16]
  IC50: > 99 µM (inactive)
Caspase-3
  IC50: 14.4 µM (active)
